# According to patent publication US20240315989A1 (priority 2021, published 2024):
# Where two headings read alike, the source gives them in different places.
# Assays:
# [1] = target: T1, σ1 site (Homo sapiens, UniProt Q99720); conditions: read-out: Affinity for σ1 Site (Ki or KD values); cited from earlier work
# [2] = target: T1, σ1 site; conditions: cited from earlier work
# [3] = system: SARS-CoV-2; conditions: A549-ACE2; cited from earlier work
# [4] = system: severe COVID-19; assay: AP-HP observational multicenter study: FIASMA medication use and intubation or death in severe COVID-19; format: in vivo, human; conditions: for Number of events/Number of patients N/N: each FIASMA class and molecule at baseline, severe COVID-19 (N = 2,846); for Number of events/Number of patients (%): each FIASMA class and molecule; for Univariate Cox regression in 1:2 ratio matched analytic samples HR: vs matched control groups
# Description: COVID-19 was ascertained by a positive reverse-transcriptase-polymerase-chain-reaction (RT-PCR) test on nasopharyngeal or oropharyngeal swab specimens. Severe COVID-19 was defined as having at least one of the following criteria at hospital admission: respiratory rate >24 breaths/min or <12 breaths/min, resting peripheral capillary oxygen saturation in ambient air <90%, temperature >40° C., systolic blood pressure <100 mm Hg, or high lactate levels >2 mmol/L.^22
# AP-HP Health Data Warehouse (‘Entrepôt de Données de Santé (EDS)’) contains all available clinical data on all inpatient visits for COVID-19 to 36 Greater Paris university hospitals. The data included patient demographic characteristics, vital signs, laboratory tests, and RT-PCR test results, medication administration data during the hospitalization for COVID-19, current diagnoses, discharge disposition, ventilator use data, and death certificates.
# We obtained the following data for each patient at the time of the hospitalization: sex; age, which was categorized into four classes based on the OpenSAFELY study results^23 (i.e., 18-50, 51-70, 71-80, and 81+); hospital, which was categorized into four classes following the administrative clustering of AP-HP hospitals in Paris and its suburbs based on their geographical location (i.e., AP-HP Centre—Paris University, Henri Mondor University Hospitals and at home hospitalization; AP-HP Nord and Hôpitaux Universitaires Paris Seine-Saint-Denis; AP-HP Paris Saclay University; and AP-HP Sorbonne University); obesity, which was defined as having a body mass index higher than 30 kg/m^2 or an International Statistical Classification of Diseases and Related Health Problems (ICD-10) diagnosis code for obesity (E66.0, E66.1, E66.2, E66.8, and E66.9); self-reported current smoking status; and any medication prescribed according to compassionate use or as part of a clinical trial (e.g., hydroxychloroquine, azithromycin, remdesivir, tocilizumab, sarilumab, or dexamethasone). To take into account possible confounding by indication bias for FIASMA medications, we recorded whether patients had any current diagnosis, based on ICD-10 diagnosis codes recorded during the visit, of neoplasms and diseases of the blood (C00-D89); mental disorders (F01-F99); diseases of the nervous system (G00-G99); cardiovascular disorders (I00-I99); respiratory disorders (J00-J99); digestive disorders (K00-K95); dermatological disorders (L00-L99); diseases of the musculoskeletal system (M00-M99); diseases of the genitourinary system (N00-N99); endocrine disorders (E00-E89); and eye-ear-nose-throat disorders (H00-H95).
# FIASMA medication use was defined as receiving at least one FIASMA medication within the first 24 hours of hospital admission. To minimize potential confounding effects of late prescription of FIASMA medications, patients who initiated an FIASMA medication more than 24 hours after hospital admission were excluded from the analyses. Patients who received at study baseline an antipsychotic or a benzodiazepine while being hospitalized in an intensive care unit, possibly as an aid to oral intubation, were also excluded.
# Study baseline was defined as the date of hospital admission for COVID-19. The primary end point was the occurrence of intubation and/or death. For patients who died after intubation, the timing of the primary end point was defined as the time of intubation.
# We calculated frequencies of all baseline characteristics described above in patients receiving or not receiving an FIASMA medication and compared them using standardized mean differences (SMD). SMD are useful to evaluate between-group differences in baseline characteristic variables independently of their unit of measurement (i.e., for both continuous and categorical variables^26-28). We considered SMD greater than 0.1 as reflecting significant differences, a threshold recommended for declaring imbalance.^27
# [5] = system: SARS-CoV-2 infection; assay: Retrospective cohort (BJC Healthcare): antidepressant exposure and ED or hospital encounter within 30 days; format: in vivo, human; conditions: for ED or hospital encounter within 30 days, %: share of exposed outpatients with an encounter after a positive SARS-CoV-2 test; for Unadjusted Odds Ratio, ED or hospital encounter within 30 days / Adjusted Odds Ratio, ED or hospital encounter within 30 days: vs No Antidepressant (Ref); for Unadjusted Odds Ratio, ED or hospital encounter within 30 days: logistic regression; for Adjusted Odds Ratio, ED or hospital encounter within 30 days: multivariable logistic regression, complete cases
# [6] = system: SARS-CoV-2; conditions: cited from earlier work
# [7] = system: pp-VSV-SARS-CoV-2 spike; conditions: cited from earlier work
# [8] = system: COVID-19; conditions: p<0.05; cited from earlier work
# [9] = system: SARS-CoV-2; conditions: cited from earlier work; remark: listed apart in the source
# [10] = one-compartment model; cited from earlier work
# [11] = target: sigma-1 receptors (Rattus norvegicus, UniProt Q9R0C9); conditions: cited from earlier work
# sigma-1 receptors, sequence (Q9R0C9 whole entry): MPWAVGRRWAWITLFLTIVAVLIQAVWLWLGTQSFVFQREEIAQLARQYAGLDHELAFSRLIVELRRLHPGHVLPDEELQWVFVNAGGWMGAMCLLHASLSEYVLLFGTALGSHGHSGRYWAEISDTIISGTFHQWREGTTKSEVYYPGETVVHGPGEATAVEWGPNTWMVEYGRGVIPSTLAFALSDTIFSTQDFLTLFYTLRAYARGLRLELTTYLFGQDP
# [12] = vs no FIASMA medication, Table 33
# [13] = paracetamol group matched to FIASMA respiratory system medication, Table 34
# T1 sequence (Q99720 whole entry): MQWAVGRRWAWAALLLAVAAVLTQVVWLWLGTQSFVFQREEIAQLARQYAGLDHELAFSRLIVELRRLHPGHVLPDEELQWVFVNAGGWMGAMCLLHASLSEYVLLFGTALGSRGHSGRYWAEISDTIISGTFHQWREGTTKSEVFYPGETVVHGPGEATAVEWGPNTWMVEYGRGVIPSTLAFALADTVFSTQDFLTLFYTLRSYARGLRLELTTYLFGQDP
compound,measurement,setting,value
COc1ccc2c(c1)[C@]13CCCC[C@@H]1[C@H](C2)N(C)CC3 [Dextromethorphan],Ki,[1],< 500 nM
same,Function on σ1 Site,[2],Agonist
same,SARS-CoV-2 viral replication,[3],increase viral replication
OCCOCCN1CCN(C(c2ccccc2)c2ccc(Cl)cc2)CC1 (stereo not drawn) [Hydroxyzine],Number of events/Number of patients N/N,[4]; Table 33,11/31
CN(C)C(=O)C(CCN1CCC(O)(c2ccc(Cl)cc2)CC1)(c1ccccc1)c1ccccc1 [Loperamide],Number of events/Number of patients N/N,[4]; Table 33,2/9
same,Number of events/Number of patients (%),[4]; Table 33,(22.2) %
same,Univariate Cox regression in 1:2 ratio matched analytic samples HR,[4]; Table 33,0.24
same,Analysis weighted by inverse-probability-weighting weights HR,[4]; [12],0.15
same,Crude Cox regression analysis HR,[4]; [12],0.39
same,Multivariable Cox regression analysis HR,[4]; [12],0.25
CC(=O)Nc1ccc(O)cc1 [Paracetamol],Number of events/Number of patients in the matched groups (%),[4]; [13],(21.4) %
same,Number of events/Number of patients in the matched groups N/N,[4]; [13],3/14
same,Number of events/Number of patients in the matched groups (%),"[4]; paracetamol group matched to other FIASMA cardiovascular system medications, Table 34",(48.5) %
CN(C)CCC=C1c2ccccc2CCc2ccccc21 [amitriptyline],"ED or hospital encounter within 30 days, %",[5],23.6%
same,"Unadjusted Odds Ratio, ED or hospital encounter within 30 days",[5],2.90
same,"Adjusted Odds Ratio, ED or hospital encounter within 30 days",[5],1.09
same,Infection with SARS-CoV-2,[6]; human Caco-2 cells,prevented infection
same,Infection with pp-VSV-SARS-CoV-2 spike,[7]; freshly isolated nasal epithelial cells of volunteers treated with a low dose,prevented infection
CN(C)CCC[C@@]1(c2ccc(F)cc2)OCc2cc(C#N)ccc21 [escitalopram],"ED or hospital encounter within 30 days, %",[5],16.2%
same,Infection with pp-VSV-SARS-CoV-2 spike,[7]; Vero cells,prevent infection
same,Risk of intubation or death because of COVID-19,[8],lower risk of intubation or death
same,Inhibiting SARS-CoV-2 replication at a concentration of,[9],at a concentration of 0.8 μg/ml
CNCCC(Oc1ccc(C(F)(F)F)cc1)c1ccccc1 (stereo not drawn) [fluoxetine],"ED or hospital encounter within 30 days, %",[5],16.2%
same,Function on σ1 Site,[2],Agonist
same,Entry and propagation of SARS-CoV-2,[6]; Vero-E6 cell lines,efficiently inhibit entry and propagation
same,Infection with pp-VSV-SARS-CoV-2 spike,[7]; Vero cells,prevent infection
same,Risk of intubation or death because of COVID-19,[8],lower risk of intubation or death
same,volume of distribution [V/F],[10],690 L
Fc1ccc([C@@H]2CCNC[C@H]2COc2ccc3c(c2)OCO3)cc1 [paroxetine],"ED or hospital encounter within 30 days, %",[5],15.1%
same,"Unadjusted Odds Ratio, ED or hospital encounter within 30 days",[5],1.67
same,"Adjusted Odds Ratio, ED or hospital encounter within 30 days",[5],0.64
same,Univariate Cox regression in 1:2 ratio matched analytic samples HR,[4]; Table 33,0.54
same,Analysis weighted by inverse-probability-weighting weights HR,[4]; [12],0.57
same,Crude Cox regression analysis HR,[4]; [12],0.69
same,Ki,[11],2040 nM
CN[C@H]1CC[C@@H](c2ccc(Cl)c(Cl)c2)c2ccccc21 [sertraline],"ED or hospital encounter within 30 days, %",[5],17.9%
same,Number of events/Number of patients N/N,[4]; Table 33,7/21
same,Number of events/Number of patients (%),[4]; Table 33,(33.3) %
same,Analysis weighted by inverse-probability-weighting weights adjusted for unbalanced covariates HR,[4]; [12],0.82
same,Crude Cox regression analysis HR,[4]; [12],0.58
same,Multivariable Cox regression analysis HR,[4]; [12],0.67
same,Function on σ1 Site,[2],Agonist
